78 molecules from PubChem BioAssay AID720588 (Broad Institute, 2013) can be followed below.

Each structure is given as a SMILES string.

This experiment deals with HEK293T viability, CellTiter-Glo ATP luminescence, 72 h. Kind of experiment: ATP-based viability loss in HEK293T cells – cell-based, CellTiter-Glo luminescence, cherry-pick, set 3, cytotoxicity control, dose response (AID 720588).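 Also: potency for luminescence loss meaning cytotoxic compounds.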 On the technique in general: Cellular ATP, detected with luciferase, serves as a proxy for viable cell number.

For the molecule `CCc1cccc2c(C(=O)CN3C(=O)NC4(CCCCC4)C3=O)c[nH]c12`, the AC35 was 11.6 µM. On to `CCOC(=O)[C@]12Cc3ccc(C)cc3[C@H]1N(C1CCCCC1)C(=O)c1ccccc12`, for which the AC35 was 9.24 µM. In the case of `COc1ccc(OC)c(Cc2cnc3nc(N)nc(N)c3c2C)c1`, the AC35 is 0.151 µM. Then `C[C@@H]1CN([C@@H](C)CO)C(=O)c2cccc(NS(=O)(=O)c3ccccc3)c2O[C@@H]1CN(C)Cc1ccc(C(=O)Nc2ccccc2N)cc1`, with 2.29 µM; and `Cc1ccc(S(=O)(=O)Nc2ccc3c(c2)C(=O)N([C@H](C)CO)C[C@H](C)[C@@H](CN(C)Cc2ccc(C(F)(F)F)cc2)OCCCC[C@H](C)O3)cc1`, with 8.51 µM; and `CCOc1cc(/C=N/Nc2cc(C)nc(-n3nc(C)cc3C)n2)ccc1O`, with 4.12 µM. Under `C[C@H]1CN([C@@H](C)CO)S(=O)(=O)c2ccc(C#Cc3ccncc3)cc2O[C@@H]1CN(C)S(=O)(=O)c1ccccc1` stands 12.3 µM; under `O=c1[nH]c(=O)n([C@H]2C[C@H](O)[C@@H](CO)O2)cc1F`, 5.28 µM; under `C[C@@H]1CN([C@H](C)CO)C(=O)c2cc(NC(=O)c3ccccc3)ccc2O[C@@H](C)CCCCO[C@H]1CN(C)C(=O)Nc1cccc2ccccc12`, 2.06 µM. Then `Cc1ccc(S(=O)(=O)Nc2ccc3c(c2)C(=O)N([C@@H](C)CO)C[C@H](C)[C@@H](CN(C)Cc2ccc(C(F)(F)F)cc2)OCCCC[C@@H](C)O3)cc1`, with 12.8 µM. Regarding `CCCCc1c(Cc2ccccc2)ncn1CCc1ccccc1OC`, the AC35 was 20.7 µM. Then `CC(=O)Nc1ccc(S(=O)(=O)Nc2ccc(N3CCCCC3)cc2)cc1`, with 22.1 µM. Then `C=C1C(=O)O[C@@H]2[C@H]1[C@@H](OC(=O)/C(C)=C/C)C/C(C)=C\C(=O)/C=C(\C)[C@@H]2O`, with 7.47 µM; and `COc1cc2c(OC(C)=O)c3c(c(-c4ccc5c(c4)OCO5)c2cc1OC)C(=O)OC3`, with 0.964 µM. Then `Nc1ccc(Cn2ccc3c4c(N)nc(N)nc4ccc32)cc1`, with 0.125 µM; and `CC12CCC(O)CC1CCC1C2CCC2(C)C(C3=CC(=O)OC3)CCC12O` (stereo not drawn), with 0.375 µM.

Take `CC1=NN(c2ccccc2)C(=O)/C1=C\C=C\c1ccccc1`: the AC35 was 19.6 µM. Under `CN=c1scc(-c2cccs2)n1/N=C/c1ccccc1O` stands 10.5 µM. Under `c1ccc(Nc2nnc(-c3ccc4c(c3)OCO4)o2)cc1` stands 3.33 µM; under `N#C[C@@H]1[C@H](c2ccc(C#Cc3ccccc3F)cc2)[C@@H](CO)N1C(=O)c1cccnc1`, 25.4 µM. In the case of `C[C@@H]1O[C@@H](O[C@H]2C[C@@H](O)[C@]3(CO)[C@@H]4C(CC[C@]3(O)C2)[C@@]2(O)CC[C@H](C3COC(=O)C3)[C@@]2(C)C[C@H]4O)[C@H](O)[C@H](O)[C@H]1O` (stereo partly drawn), the AC35 was 2.43 µM. Then `COc1ccc(C=C2CCc3ccccc3C2=O)cc1`, with 16.2 µM; and `COc1ccccc1NC(=O)N1CCCCN2[C@H](CO)[C@H](c3ccc(-c4cccc(C)c4)cc3)[C@H]2C1`, with 10.4 µM; and `C[C@H]1CN([C@@H](C)CO)C(=O)c2cc(N(C)C)ccc2O[C@H]1CN(C)Cc1ccc(C(=O)Nc2ccccc2N)cc1`, with 3.65 µM. Under `C[C@@H]1CN([C@@H](C)CO)C(=O)c2cccc(NS(=O)(=O)c3ccc(Cl)cc3)c2O[C@@H]1CN(C)Cc1ccc(C(=O)Nc2ccccc2N)cc1` stands 6.6 µM; under `Cc1nn(Cc2ccccc2Cl)c2sc(C(=O)Nc3ccccc3N3CCOCC3)cc12`, 15.9 µM; under `Cc1cc(-c2nc3cc(F)ccc3s2)ccc1N`, 16.9 µM. Under `O=C(Nc1ccc(Br)cc1)c1ccc(F)c(S(=O)(=O)N2CCN(c3ccccn3)CC2)c1` stands 8.36 µM; under `C[C@@H]1CCCCO[C@H](CN(C)Cc2ccc(C(F)(F)F)cc2)[C@H](C)CN([C@H](C)CO)C(=O)c2cc(NC(=O)CCCN(C)C)ccc2O1`, 14.6 µM. As for `C[C@]12CC[C@H](O)C[C@H]1CC[C@@H]1[C@@H]2CC[C@]2(C)[C@@H](C3=CC(=O)OC3)CC[C@]12O`, the AC35 was 0.629 µM. Under `C[C@@H]1CN([C@@H](C)CO)S(=O)(=O)c2ccc(C#CC(C)(C)O)cc2O[C@H]1CN(C)Cc1ccc(-c2ccccc2)cc1` stands 6.7 µM; under `Nc1ccc(Oc2cccc(Oc3ccc(N)cc3)c2)cc1`, 6.82 µM; under `O=C(O)c1ccc(N/N=C/c2ccc3nccnc3c2)cc1`, 11.9 µM. Under `COC1C(O)C(C)OC(OC2C(Oc3cccc4c(O)c5c(=O)oc6ccc(C)c7c(=O)oc(c34)c5c67)OC(C)C(O)C2O)C1O` (stereo not drawn) stands 15.1 µM.

With `Cc1cccc(/C=C(\c2nc3ccccc3[nH]2)S(=O)(=O)c2ccccc2)c1`, the AC35 was 8.44 µM.

As for `COC(=O)c1ccccc1-c1c2ccc(=N)cc-2oc2cc(N)ccc12`, the AC35 was 15.3 µM. Then `CC(=O)OC1CC2(O)C3CCC4CC(O)CCC4(C)C3CCC2(C)C1C1=CC(=O)OC1` (stereo not drawn), with 0.262 µM; and `COC1C(O)C(C)OC(OC2CCC3(C)C(CCC4C3C(O)CC3(C)C(C5=CC(=O)OC5)CCC43O)C2)C1O` (stereo not drawn), with 0.244 µM; and `CCCCCCCN(c1ccccc1)[C@@H]1C[C@H]2CCCC(=O)N3CC[C@@H](C1)[C@@H]23`, with 13.3 µM. For `CCc1nc(N)nc(N)c1-c1ccc(Cl)c(N=[N+]=[N-])c1`, the AC35 was 8.98 µM. For the molecule `C(=Cc1cnc2ccccc2n1)c1ccc2c(c1)OCO2`, the AC35 is 5.29 µM.

With `CO[C@H]1CN(C)C(=O)c2cc(NC(=O)c3ccc(Oc4ccccc4)cc3)ccc2OC[C@H](C)NC[C@@H]1C`, the AC35 was 14.5 µM.

In the case of `CCCCCCCCNC(C)C(O)c1ccc(SC(C)C)cc1` (stereo not drawn), the AC35 is 12.2 µM. For the molecule `COc1ccc(OC)c(-c2nnc3n2N=C(c2ccc(OC)c(OC4CCCC4)c2)CS3)c1`, the AC35 is 11.6 µM.

With `O=c1c(Cl)cc(Cl)nn1-c1ccccc1`, the AC35 is 19.2 µM.

Regarding `COc1ccc(CC(N)c2csc(NC(=O)Nc3cccc(C(F)(F)F)c3)n2)cc1` (stereo not drawn), the AC35 was 10.1 µM. As for `COc1ccccc1-c1ccc(OCCCN2CCC(C(O)(c3ccccc3)c3ccccc3)CC2)cc1`, the AC35 is 10.3 µM.

As for `CN=c1scc(-c2ccccc2F)n1/N=C/c1ccc[nH]1`, the AC35 was 10.8 µM.

With `C[C@@H]1CCCCO[C@H](CN(C)Cc2ccc(C(=O)Nc3ccccc3N)cc2)[C@@H](C)CN([C@H](C)CO)C(=O)c2cc(NS(=O)(=O)c3ccc(Cl)cc3)ccc2O1`, the AC35 is 17.3 µM. Regarding `O=C(Nc1ccc(F)cc1)N1CCCCN2[C@@H](CO)[C@H](c3ccc(C4=CCCCC4)cc3)[C@@H]2C1`, the AC35 is 9.39 µM. Under `O=C1NC(=O)N(Cc2ccco2)C(=O)/C1=C/C=C/c1ccco1` stands 13.7 µM; under `CC(=NNc1cc(C)c2ccccc2n1)c1ccccn1`, 2 µM. Take `Cc1cccc(CN2C(=O)/C(=C\c3ccc(C(=O)NCCCN4CCN(C)CC4)cc3)Oc3ccccc32)c1`: the AC35 is 13.6 µM. Then `COc1ccc(NC(=O)N2CCCCN3[C@@H](CO)[C@H](c4ccc(C5=CCCCC5)cc4)[C@@H]3C2)cc1`, with 10 µM; and `CN(C)CC1CCC/C(=C\c2ccc(OC(=O)c3ccc(Cl)cc3)cc2)C1=O` (stereo not drawn), with 11.3 µM; and `C[C@H](CO)N1C[C@H](C)[C@H](CN(C)Cc2ccc(C(=O)Nc3ccccc3N)cc2)Oc2ccc(NC(=O)C3CC3)cc2CC1=O`, with 3.6 µM. Then `C[C@]12CCC3C(CCC4=CC(O)CC[C@@]43/C=N/O)C1(O)CCC2C1=CC(=O)OC1` (stereo partly drawn), with 0.694 µM; and `Cc1cc(C)cc(N2C(=O)NC(=O)/C(=C\C=C\c3ccco3)C2=O)c1`, with 10.6 µM; and `Nc1nc(=S)c2ncn([C@@H]3O[C@H](CO)[C@@H](O)[C@H]3O)c2[nH]1`, with 7.33 µM. Under `CN1c2ccc(-c3ccc(C#N)cc3)cc2[C@H]2[C@H](CCN2S(=O)(=O)c2cccc(F)c2)[C@@H]1CO` stands 23.4 µM; under `C[C@@H]1CN([C@@H](C)CO)C(=O)Cc2cc(N(C)C)ccc2O[C@H]1CN(C)Cc1ccc(C(=O)Nc2ccccc2N)cc1`, 7.46 µM. `CN(C)c1ccc(N=Nc2nc3ccccc3n2C)cc1`: the AC35 is 12.5 µM. Under `Cc1nc(N)nc(N)c1CCCc1ccc(Cl)c(Cl)c1` stands 3.58 µM; under `CC(=O)OC1CC(OC2C(O)CC(OC3C(O)CC(OC4CCC5(C)C(CCC6C5CCC5(C)C(C7=CC(=O)OC7)CCC65O)C4)OC3C)OC2C)OC(C)C1OC1OC(CO)C(O)C(O)C1O` (stereo not drawn), 0.0583 µM.

`O=C(NC[C@@H]1N[C@@H](CO)[C@H]1c1ccc(C2=CCCCC2)cc1)c1cccc(F)c1`: the AC35 was 10.1 µM.

For `N#C[C@@H]1[C@H](c2ccc(C#Cc3ccc(F)cc3)cc2)[C@@H](CO)N1C(=O)Nc1ccc(F)cc1`, the AC35 is 12.6 µM. Under `COc1ccc(OC)c(-c2nnc3n2N=C(c2ccc(OC)c(OC4CCOC4)c2)CS3)c1` (stereo not drawn) stands 9.24 µM. Then `C[C@@H]1CN([C@H](C)CO)C(=O)Cc2cc(NC(=O)CCCCCC(=O)Nc3ccccc3N)ccc2O[C@@H]1CN(C)CC1CCCCC1`, with 20.1 µM; and `C[C@]12CC[C@H]3[C@@H](CC[C@]4(O)C[C@@H](O)CC[C@]34C=O)[C@@]1(O)CC[C@@H]2C1=CC(=O)OC1`, with 0.774 µM; and `CC(C)N1C/C(=C/c2cccnc2)C(=O)/C(=C/c2cccnc2)C1`, with 18.7 µM. Then `C=C1C(=O)C=C[C@]2(C)C[C@@H]3OC(=O)[C@](C)(O)[C@H]3C[C@@H]12`, with 8.77 µM; and `COc1ccc(S(=O)(=O)N2CC[C@@H]3[C@@H](CO)Nc4ccc(-c5ccc(C#N)cc5)cc4[C@@H]32)cc1`, with 16.5 µM; and `C[C@@H]1CN([C@@H](C)CO)S(=O)(=O)c2ccc(C#Cc3ccncc3)cc2O[C@H]1CN(C)S(=O)(=O)c1ccccc1`, with 24.5 µM. With `COc1ccc(S(=O)(=O)Nc2ccc3c(c2)C(=O)N([C@H](C)CO)C[C@@H](C)[C@@H](CN(C)Cc2ccc(C(=O)Nc4ccccc4N)cc2)O3)cc1`, the AC35 is 15 µM.

As to `Oc1c(C(c2ccc(Cl)cc2)N2CCCC2)cc(Cl)c2cccnc12` (stereo not drawn), the AC35 was 6.54 µM. For `O=C(CCc1ccccc1)NC(c1cccs1)c1cc(Cl)c2cccnc2c1O` (stereo not drawn), the AC35 is 7.93 µM. Then `COc1ccc([Si](C)(C)[C@H]2[C@H](CCO)O[C@@]3(C(=O)N(c4ccccc4)c4ccccc43)[C@@H]2C)cc1`, with 15 µM; and `COc1ccc(-c2cn(-c3ccc(OC)cc3)c3[n+]2-c2ccccc2CC3)cc1`, with 7.06 µM.
